The structures appear in SMILES notation.

One series concerns the target T1, hCAR1 (Homo sapiens, UniProt Q14994).
T1 construct: expressed in transfected cells; host or cells: HepG2 (transient transfection)
T1 sequence (Q14994 1-348 isoform Q14994-2): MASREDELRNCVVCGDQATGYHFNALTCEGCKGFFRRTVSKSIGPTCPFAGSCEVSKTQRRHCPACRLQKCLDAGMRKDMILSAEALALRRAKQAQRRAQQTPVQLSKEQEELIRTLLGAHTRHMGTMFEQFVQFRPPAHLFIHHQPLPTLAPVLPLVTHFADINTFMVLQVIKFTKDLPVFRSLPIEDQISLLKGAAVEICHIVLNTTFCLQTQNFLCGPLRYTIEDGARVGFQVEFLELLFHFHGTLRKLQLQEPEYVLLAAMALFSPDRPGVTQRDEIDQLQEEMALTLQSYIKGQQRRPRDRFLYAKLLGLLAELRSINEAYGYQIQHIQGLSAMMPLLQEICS
Briefly: CAR-mediated CYP3A4-luciferase assay (HepG2 cells transfected with hCAR1). In kind it is cell-based. The conditions noted are these: 1 μM or 5 μM CINPA1, 24 h. The protocol:
Briefly, HepG2 cells were transiently transfected with plasmids expressing hCAR1, CYP3A4-luc reporter and control plasmid pTK-RL. […] Dual luciferase activity was measured 24 h after treatment using Dual-Glo® luciferase reagent. Renilla luciferase was used to normalize firefly luciferase values and % Luciferase activity was calculated by setting DMSO to 100%. p<0.001, when comparing DMSO to all treatments except 5 μM rifampicin. […] Briefly, HepG2-PXR Clone 1 cells were treated with CINPA1 in a dose-responsive format (40 μM to 2 nM, 1-to-2 dilutions for 10 concentrations) in the presence or absence of 5 μM rifampicin (Rif) for 24 h before luciferase assay using SteadyLite™. % PXR activity was calculated by setting DMSO (negative. control) treated cells to 0% and 5 μM rifampicin (positive. control) treated cells to 100%. GraphPad Prism was used to fit the data into a dose-response stimulation equation to derive IC50 values. […] Briefly, U2OS cells were transiently transfected with plasmids expressing hCAR1, CYP2B6-luc reporter and control plasmid pTK-RL. […] Dual luciferase activity was measured 24 h after treatment. Renilla luciferase was used to normalize firefly luciferase values and % Luciferase activity was calculated by setting DMSO to 100%. *, p<0.0001 comparing CITCO+CINPA1 to CITCO treated cells.

In another series the test system is CAR protein. In words: Western blot of CAR protein in human primary hepatocytes. It counts as cell-based. The conditions noted are these: 5 μM CINPA1, 48 h. The protocol:
(§1) Briefly, CAR binding to PGC-1α coactivator peptide was determined by using the LanthaScreen® fluorescent coregulator peptide assay. Fluorescein-labeled PGC-1α peptide (125 nM) was complexed with GST-hCAR-LBD (5 nM) and Tb-anti-GST antibody (5 nM) as described in Experimental Procedures. […] Lysates were prepared, and CAR expression was analyzed by Western blot using CAR monoclonal antibody (Clone N4111, R&D Systems). β-actin was used as a loading control. […] Briefly, U2OS cells were transfected to express FLAG-hCAR1. […] Secondary antibody labeled with Alexa Fluor® 555 dye was used to visualize FLAG-tagged hCAR1 (shown in the second column) using a NikonC 1Si microscope. Nuclei were stained with DAPI (shown in the first column).
On the technique in general: A western blot detects proteins with antibodies after separation by electrophoresis.

In series [1] the test system is HepG2, LS174T, and HEK293T cells. In words: Cell viability (CellTiter-Glo).
Experimental: Cells were treated with indicated compounds for 24 h, and viability was measured by using CellTiter-Glo® reagent. […] Cell viability was measured 4 days post treatment by using CellTiter-Glo® reagent. Viability of cells treated with DMSO (negative control) was set to 100% in all assays.
Series [2] deals with FXR, GR, LXRα, LXRβ, PPARγ, RXRα, RXRβ, VDR. Briefly: GeneBLAzer nuclear receptor assays. It counts as cell-based. Conditions: 18 μM. The method, then: FIG. 3B-FIG. 31 show representative data for treatment of GeneBLAzer® cells treated with DMSO (negative control), a predetermined concentration of the indicated nuclear receptor (“NR”) antagonist (positive control; concentration as detailed in Examples), or 18 μM of CINPA1 in the presence or absence the indicated NR agonist (i.e., indicated below treatments). NR-mediated β-lactamase activity was measured as a FRET ratio after 24 h treatment. Data is presented as % Activity, determined by setting the maximum FRET signal obtained for each receptor (in the respective agonist+DMSO wells) to 100%. eGugg=e Guggulsterone, Feno=Fenofibrate, GW9=GW9662, 22HC=22(S)-hydroxycholesterol, 9-cis RA=9-cis retinoic acid.
GeneBLAzer® cells individually expressing the ligand-binding domains of either FXR, GR, LXRα, LXRβ, PPARγ, RXRα, RXRβ, or VDR fused to the GAL4-DNA binding domain (GAL4-DBD) were obtained from Life Technologies (Li, G., et al. (2012) Tox. Appl. Pharm. 258, 268-274; and Yu, D. D., et al. (2013) Bioorg. Med. Chem 21, 4266-4278). Upon activation with the respective agonist, β-lactamase is expressed under the transcriptional control of an Upstream Activator Sequence (UAS), and a FRET-based substrate (CCF2-AM) is used to measure the enzyme activity of β-lactamase.

Series [3] deals with FLAG-hCAR1 nuclear localization. Briefly: Immunofluorescence of FLAG-hCAR1 in U2OS cells. The conditions noted are these: 5 μM CINPA1, 2 h. In kind it is cell-based, human. The method, then:
as §1
U2OS cells were transiently transfected to express FLAG-hCAR1. […] Cells were fixed by using a 4% paraformaldehyde solution (Sigma), permeabilized by using 0.5% Triton X-100 in PBS, and incubated with FLAG-antibody overnight at 4° C. Cells were washed three times with PBS following each step. Secondary antibody labeled with Alexa Fluor® 555 dye was used to visualize FLAG-tagged hCAR1 (red) using a NikonC 1Si microscope. Nuclei were stained with DAPI (blue).

Turning to `CCOC(=O)Nc1ccc2c(c1)N(C(=O)CN(CC)CC)c1ccccc1CC2` [CINPA1], the “CAR-mediated CYP3A4-luciferase activity” value on hCAR1 was “also seen in CAR-mediated CYP3A4-luciferase activity”. Besides, the CAR protein level result in the series with CAR protein was “had no effect”. In addition, in series [1] (30 μM and 60 μM), the “cytotoxicity at higher concentrations” value was “cytotoxic to varying degrees”. The general cytotoxicity result in series [1] (concentration range effective in inhibiting CAR and PXR, 4-day assay) is “does not exhibit general cytotoxicity”. Besides, the “attenuation of agonist-induced receptor activation” value in series [2] (with NR agonist) is “did not attenuate the agonist-induced activation of any of the receptors tested”. In addition, the “activation of nuclear receptors” value in series [2] (without agonist) is given as “did not activate any of the nuclear receptors tested”. The “nuclear localization of CAR” value in series [3] is listed as “does not alter the nuclear localization of CAR”.
